What all share (type): in vivo
The test system of experiment [1] is Ctenocephalides felis. In words: Ctenocephalides felis in vitro contact test with adult cat fleas. The following applies: application rate 5 μg/cm^2 (=500 g/ha), after 48 h. The procedure: Ctenocephalides felis—In Vitro Contact Tests with Adult Cat Fleas For the coating of the test tubes, 9 mg of active ingredient are first dissolved in 1 ml of acetone p.a. and then diluted to the desired concentration with acetone p.a. 250 μl of the solution are distributed homogeneously on the inner walls and the base of a 25 ml glass tube by turning and rocking on an orbital shaker (rocking rotation at 30 rpm for 2 h). With 900 ppm of active ingredient solution and internal surface area 44.7 cm^2, given homogeneous distribution, an area-based dose of 5 μg/cm^2 is achieved. After the solvent has evaporated off, the tubes are populated with 5-10 adult cat fleas (Ctenocephalides felis), sealed with a perforated plastic lid and incubated in a horizontal position at room temperature and ambient humidity. After 48 h, efficacy is determined. To this end, the tubes are stood upright and the fleas are knocked to the base of the tube. Fleas which remain motionless at the base or move in an uncoordinated manner are considered to be dead or moribund. […] 100% efficacy means that all the fleas were dead or moribund. 0% efficacy means that no fleas were harmed.

Experiment [2] deals with Rhipicephalus sanguineus. Kind of experiment: Rhipicephalus sanguineus in vitro contact test with adult brown dog ticks. The following applies: application rate 5 μg/cm^2 (=500 g/ha), after 48 h. The procedure:
Rhipicephalus sanguineus—In Vitro Contact Test with Adult Brown Dog Ticks For the coating of the test tubes, 9 mg of active ingredient are first dissolved in 1 ml of acetone p.a. and then diluted to the desired concentration with acetone p.a. 250 µl of the solution are distributed homogeneously on the inner walls and the base of a 25 ml glass tube by turning and rocking on an orbital shaker (rocking rotation at 30 rpm for 2 h). With 900 ppm of active ingredient solution and internal surface area 44.7 cm^2, given homogeneous distribution, an area-based dose of 5 μg/cm^2 is achieved. After the solvent has evaporated off, the tubes are populated with 5-10 adult dog ticks (Rhipicephalus sanguineus), sealed with a perforated plastic lid and incubated in a horizontal position in darkness at room temperature and ambient humidity. After 48 h, efficacy is determined. To this end, the ticks are knocked to the base of the tube and incubated on a hotplate at 45-50° C. for a maximum 5 min. Ticks which remain motionless at the base or move in such an uncoordinated manner that they cannot attempt to escape from the heat by climbing upward are considered to be dead or moribund. […] 100% efficacy means that all the ticks were dead or moribund. 0% efficacy means that no ticks were harmed.

For experiment [3], the system named is Ctenocephalides felis. In words: Ctenocephalides felis oral test. To be noted: application rate 100 ppm in citrated cattle blood, adult cat fleas, after 2 days. The procedure: Ctenocephalides felis—Oral Test Solvent: dimethyl sulfoxide To produce a suitable active ingredient formulation, 10 mg of active ingredient are mixed with 0.5 ml of dimethyl sulfoxide. Dilution with citrated cattle blood gives the desired concentration. About 20 unfed adult cat fleas (Ctenocephalides felis) are placed into a chamber which is closed at the top and bottom with gauze. A metal cylinder whose bottom end is closed with parafilm is placed onto the chamber. The cylinder contains the blood/active ingredient formulation, which can be imbibed by the fleas through the parafilm membrane. After 2 days, the kill in % is determined. 100% means that all of the fleas have been killed; 0% means that none of the fleas have been killed.

The test system of experiment [4] is Lucilia cuprina. Kind of experiment: Lucilia cuprina test. The following applies: application rate 100 ppm, L1 larvae, after 2 days. The procedure: Lucilia cuprina Test Solvent: dimethyl sulfoxide To produce a suitable active ingredient formulation, 10 mg of active ingredient are mixed with 0.5 ml of dimethyl sulfoxide, and the concentrate is diluted with water to the desired concentration. About 20 L1 larvae of the Australian sheep blowfly (Lucilia cuprina) are transferred into a test vessel containing minced horsemeat and the active ingredient formulation of the desired concentration. After 2 days, the kill in % is determined. 100% means that all the larvae have been killed; 0% means that no larvae have been killed.

Experiment [5] has as its system Musca domestica. Kind of experiment: Musca domestica test. To be noted: adult houseflies, after 2 days. The procedure:
Musca domestica Test Solvent: dimethyl sulfoxide To produce a suitable active ingredient formulation, 10 mg of active ingredient are mixed with 0.5 ml of dimethyl sulfoxide, and the concentrate is diluted with water to the desired concentration. Vessels containing a sponge treated with sugar solution and the active ingredient formulation of the desired concentration are populated with 10 adult houseflies (Musca domestica). After 2 days, the kill in % is determined. 100% means that all of the flies have been killed; 0% means that none of the flies have been killed.

Experiment [6] has as its system Myzus persicae. Kind of experiment: Myzus persicae oral test. To be noted: 120 h, after 5 days, read-out: efficacy in %. The procedure:
Myzus persicae—Oral Test [table] To produce a suitable active ingredient formulation, 1 part by weight of active ingredient is dissolved with the stated parts by weight of solvent and made up to the desired concentration with water. 50 μl of the active ingredient formulationare transferred into microtitre plates and made up to a final volume of 200 μl with 150 μl of IPL41 insect medium (33% +15% sugar). Subsequently, the plates are sealed with parafilm, which a mixed population of green peach aphids (Myzus persicae) within a second microtitre plate is able to puncture and imbibe the solution. After 5 days, the efficacy in % is determined. 100% means that all the aphids have been killed; 0% means that no aphids have been killed.

Experiment [7] concerns Myzus persicae. Kind of experiment: Myzus persicae spray test. The following applies: foliar, 120 h, application rate 100 g/ha, spray on Chinese cabbage leaf discs, after 5 days, read-out: efficacy in %. The procedure: Myzus persicae—Spray Test [table] To produce a suitable active ingredient formulation, 1 part by weight of active ingredient is dissolved with the specified parts by weight of solvent and made up to the desired concentration with water containing an emulsifier concentration of 1000 ppm. To produce further test concentrations, the formulation is diluted with emulsifier-containing water. Discs of Chinese cabbage leaves (Brassica pekinensis) infested by all stages of the green peach aphid (Myzus persicae) are sprayed with an active ingredient formulation of the desired concentration. After 5 days, the efficacy in % is determined. 100% means that all the aphids have been killed; 0% means that no aphids have been killed.

The test system of experiment [8] is Phaedon cochleariae. Kind of experiment: Phaedon cochleariae spray test. To be noted: foliar, 168 h, application rate 100 g/ha, spray on Chinese cabbage leaf discs, larvae, after 7 days, read-out: efficacy in %. The procedure: Phaedon cochleariae—Spray Test
(§1) To produce a suitable active ingredient formulation, 1 part by weight of active ingredient is dissolved with the specified parts by weight of solvent and made up to the desired concentration with water containing an emulsifier concentration of 1000 ppm. To produce further test concentrations, the formulation is diluted with emulsifier-containing water.
Discs of Chinese cabbage leaves (Brassica pekinensis) are sprayed with an active ingredient formulation of the desired concentration and, after drying, populated with larvae of the mustard beetle (Phaedon cochleariae).
After 7 days, the efficacy in % is determined. 100% means that all the beetle larvae have been killed; 0% means that no beetle larvae have been killed.

The subject of experiment [9] is Spodoptera frugiperda. Kind of experiment: Spodoptera frugiperda spray test. The following applies: application rate 100 g/ha, spray on maize leaf discs, caterpillars, after 7 days. The procedure:
Spodoptera frugiperda—Spray Test [table] To produce a suitable active ingredient formulation, 1 part by weight of active ingredient is dissolved with the specified parts by weight of solvent and made up to the desired concentration with water containing an emulsifier concentration of 1000 ppm. To produce further test concentrations, the formulation is diluted with emulsifier-containing water. Leaf discs of maize (Zea mays) are sprayed with an active ingredient formulation of the desired concentration and, after drying, populated with caterpillars of the armyworm (Spodoptera frugiperda). After 7 days, the efficacy in % is determined. 100% means that all the caterpillars have been killed; 0% means that no caterpillar has been killed.

The test system of experiment [10] is Tetranychus urticae. In words: Tetranychus urticae spray test, OP-resistant. The following applies: application rate 20 g/ha, spray on bean leaf discs, all stages, after 6 days. The procedure:
Tetranychus urticae—Spray Test, OP-Resistant
as §1
Discs of bean leaves (Phaseolus vulgaris) infested with all stages of the greenhouse red spider mite (Tetranychus urticae) are sprayed with an active ingredient formulation of the desired concentration.
After 6 days, the efficacy in % is determined. 100% means that all the spider mites have been killed; 0% means that no spider mites have been killed.

SMILES strings stand for the structures.

Consider `CCS(=O)(=O)c1c(-c2nc3cc(C(F)(F)F)cnc3n2C)nc(C2CC2)n1C` [Example I-2, 2-[2-Cyclopropyl-5-(ethylsulfonyl)-1-methyl-1H-imidazol-4-yl]-3-methyl-6-(trifluoromethyl)-3H-imidazo[4,5-b]pyridine], for which, in experiment [1], the “efficacy (fleas dead or moribund)” value is recorded as 100%. The “efficacy (ticks dead or moribund)” value in [2] was determined as 100%. Moreover, the “efficacy (kill in %)” value in [3] turned out to be 100%; in experiment [4], 100%; in experiment [5] (application rate 20 ppm) it was 90%; in experiment [5] (application rate 100 ppm), 80%. The pest or weed control at 0.8 ppm in experiment [6] (application rate 0.8 ppm) amounted to 100%. The pest or weed control at 4 ppm in [6] (application rate 4 ppm) was 100%. Also, the pest or weed control at 20 ppm in [6] (application rate 20 ppm) came out at 100%. Also, the pest or weed control at 100 g/ha in experiment [7] was 90%; in experiment [8], 100%. In addition, the efficacy in % in experiment [9] is 100%; in [10] it was 90%.

These data come from patent US11058115B2, “Heterocycle derivatives as pesticides” (Bayer Aktiengesellschaft, priority 2017, dated 2021).
